Measured values reported in ChEMBL document CHEMBL1140846, “Convenient QSAR model for predicting the complexation of structurally diverse compounds with beta-cyclodextrins” (Bioorg Med Chem, 2009).

Test: Binding affinity to beta cyclodextrin

Row | SMILES | log Ks
1 | Cc1noc(NS(=O)(=O)c2ccc(N)cc2)c1C [SULFISOXAZOLE] | 2.32
2 | O=Cc1ccccc1 [BENZALDEHYDE] | 1.78
3 | CCc1ccccc1 [ETHYLBENZENE] | 2.59
4 | Oc1ccc(F)cc1 | 1.73
5 | OC1CCCCCC1 [CYCLOHEPTANOL] | 3.23
6 | Cc1ccc(C)cc1 [P-XYLENE] | 2.38
7 | CC(C)C(C)O (stereo not given) | 1.92
8 | Brc1ccc(Br)cc1 | 2.97
9 | ClCc1ccccc1 [(CHLOROMETHYL)BENZENE] | 2.45
10 | Brc1ccccc1 [BROMOBENZENE] | 2.5
11 | C[C@]12C[C@H](O)[C@H]3[C@@H](CCC4=CC(=O)CC[C@@]43C)[C@@H]1CC[C@@H]2C(=O)CO [CORTICOSTERONE] | 3.85
12 | CCCc1cccc(O)c1 | 3.28
13 | CC(C)(C)CO | 2.71
14 | Cc1ccc(Cl)c(Nc2ccccc2C(=O)O)c1Cl [MECLOFENAMIC ACID] | 2.67
15 | OC1CCCCC1 [CYCLOHEXANOL] | 2.67
16 | Nc1ccc(S(=O)(=O)Nc2ncccn2)cc1 [SULFADIAZINE] | 2.52
17 | CC(=O)Oc1cccc(CC(C)C)c1 | 3.83
18 | c1ccc2c(c1)Nc1ccccc1S2 [PHENOTHIAZINE] | 2.73
19 | C=CCC1(CC=C)C(=O)NC(=O)NC1=O [ALLOBARBITAL] | 1.98
20 | CCC(C)c1ccc(O)cc1 (stereo not given) | 4.18
21 | CCCCc1ccc(O)cc1 | 3.97
22 | Nc1ccc(S(=O)(=O)Nc2ccccn2)cc1 [SULFAPYRIDINE] | 2.7
23 | CCCCOC(=O)c1ccc(O)cc1 [BUTYLPARABEN] | 3.39
24 | c1ccc2c(c1)sc1ccccc12 [DIBENZOTHIOPHENE] | 3.48
25 | CCCCC[C@H](O)/C=C/[C@@H]1[C@H]2C/C(=C/CCCC(=O)O)O[C@H]2C[C@H]1O [EPOPROSTENOL] | 2.94

Row | SMILES | log Ks
26 | COc1cccc(O)c1 [1-hydroxy-3-methoxybenzene] | 2.11
27 | Cc1cccc(/C=C/C(=O)O)c1 | 2.93
28 | CC(=O)Oc1ccc(Br)cc1 | 2.68
29 | CCc1ccc(O)cc1 | 2.69
30 | Cc1cccc(Nc2ccccc2C(=O)O)c1C [MEFENAMIC ACID] | 2.49
31 | CN(C)c1ccccc1 | 2.36
32 | OC[C@H](O)COCc1ccccc1 | 2.11
33 | CC(C(=O)O)c1cccc(C(=O)c2ccccc2)c1 (stereo not given) [KETOPROFEN] | 2.85
34 | c1ccc2sccc2c1 [BENZOTHIOPHENE] | 3.23
35 | CC(C)=O [ACETONE] | 0.42
36 | C[C@H]1C[C@H]2[C@@H]3CCC4=CC(=O)C=C[C@]4(C)[C@@]3(F)[C@@H](O)C[C@]2(C)[C@@]1(O)C(=O)CO [BETAMETHASONE] | 3.73
37 | O=C(O)CCC(=O)c1ccc(-c2ccccc2)cc1 [FENBUFEN] | 2.63
38 | c1ccc2c(c1)cnc1ccccc12 [PHENANTHRIDINE] | 2.57
39 | CCCC(C)(C)O | 1.99
40 | O=C(O)Cc1ccccc1 [PHENYLACETIC ACID] | 2.1
41 | CC(=O)Oc1cccc(F)c1 | 1.91
42 | O=C(O)/C=C/c1ccc(O)cc1 [COUMARIC ACID] | 2.83
43 | Oc1ccc(O)cc1 [HYDROQUINONE] | 2.05
44 | CC(=O)Oc1ccc(C)cc1 | 2.49
45 | Cc1cccc(N(C)C(=S)Oc2ccc3ccccc3c2)c1 [TOLNAFTATE] | 3.83
46 | CC(=O)Oc1cccc(Cl)c1 | 2.44
47 | CC(=O)Oc1ccc(I)cc1 | 3
48 | O=C(O)c1ccc(O)cc1 [PARABEN] | 2.2
49 | OCc1ccccc1 [BENZYL ALCOHOL] | 1.71
50 | CC=O | -0.64

Row | SMILES | log Ks
51 | CCCCCCCCO [OCTANOL] | 3.17
52 | CC(C)c1cccc(O)c1 | 3.44
53 | CCC1(c2ccccc2)C(=O)NC(=O)NC1=O [PHENOBARBITAL] | 3.22
54 | OC1CCCCCCC1 [CYCLOOCTANOL] | 3.3
55 | CCC1(C2=CCCCC2)C(=O)NC(=O)NC1=O [CYCLOBARBITAL] | 2.71
56 | c1ccc(Cn2ccnc2)cc1 [BENZYLIMIDAZOLE] | 2.61
57 | CC(=O)Oc1ccc(Cl)cc1 | 2.5
58 | CC(C)Oc1ccc(O)cc1 | 2.86
59 | O=[N+]([O-])c1ccccc1 [NITROBENZENE] | 2.04
60 | Oc1cc(Cl)cc(Cl)c1 | 2.07
61 | CC(=O)OCC(=O)[C@@]1(O)CC[C@H]2[C@@H]3CCC4=CC(=O)CC[C@]4(C)[C@H]3C(=O)C[C@@]21C [CORTISONE ACETATE] | 3.62
62 | c1ccc2c(c1)[nH]c1ccccc12 [CARBAZOLE] | 2.44
63 | CC(=O)Oc1cccc(C)c1 | 2.21
64 | CC(=O)c1ccc(O)cc1 [4-HYDROXYACETOPHENONE] | 2.18
65 | O=C(O)c1ccc([N+](=O)[O-])cc1 [4-NITROBENZOIC ACID] | 2.34
66 | CCCOC/C(=N\c1ccc(Cl)cc1C(F)(F)F)n1ccnc1 [TRIFLUMIZOLE] | 2.66
67 | CN1C(=O)CN=C(c2ccccc2F)c2cc(Cl)ccc21 [FLUDIAZEPAM] | 2.33
68 | COCCO [2-METHOXYETHANOL] | 0.22
69 | CC(C)CO [ISOBUTANOL] | 1.62
70 | N#Cc1ccccc1 [BENZONITRILE] | 2.23
71 | CCc1cccc(OC(C)=O)c1 | 2.68
72 | OCCc1ccccc1 [PHENYLETHYL ALCOHOL] | 2.15
73 | CCOC(=O)c1ccc(N)cc1 [BENZOCAINE] | 2.69
74 | O=Cc1ccc(O)cc1 [4-HYDROXYBENZALDEHYDE] | 1.75
75 | CCCCOC(=O)c1ccc(N)cc1 [BUTAMBEN] | 3.19

Row | SMILES | log Ks
76 | CC1(C)O[C@@H]2C[C@H]3[C@@H]4C[C@H](F)C5=CC(=O)C=C[C@]5(C)[C@@]4(F)[C@@H](O)C[C@]3(C)[C@]2(C(=O)CO)O1 [FLUOCINOLONE ACETONIDE] | 3.48
77 | CC(=O)c1cccc(O)c1 | 2.06
78 | CC(=O)Oc1ccc(C(C)C)cc1 | 2.88
79 | CC(=O)c1ccccc1 [ACETOPHENONE] | 2.27
80 | CCC(C)(C)O [AMYLENE HYDRATE] | 1.91
81 | c1ccc2c(c1)oc1ccccc12 [DIBENZOFURAN] | 2.97
82 | Cc1ccnc(NS(=O)(=O)c2ccc(N)cc2)n1 [SULFAMERAZINE] | 1.97
83 | Oc1ccc(I)cc1 | 2.98
84 | CC(C)(C)c1cccc(O)c1 | 4.41
85 | CC(=O)Oc1cccc(C(C)C)c1 | 3.36
86 | CCCCc1ccc(OC(C)=O)cc1 | 3.62
87 | Nc1ccc(S(=O)(=O)Nc2ccnn2-c2ccccc2)cc1 [SULFAPHENAZOLE] | 2.35
88 | CCC(=O)c1cccc(O)c1 | 2.61
89 | O=C(O)/C=C/c1cccc(O)c1 | 2.56
90 | O=C(O)c1ccccc1Nc1ccccc1 [FENAMIC ACID] | 2.89
91 | Cc1cc(NS(=O)(=O)c2ccc(N)cc2)nc(C)n1 [SULFISOMIDINE] | 2.1
92 | CCC(C)(O)CC | 2.15
93 | CCNCC [DIETHYLAMINE] | 1.36
94 | OCCCO [1,3-PROPANEDIOL] | 0.67
95 | COc1ccc(O)cc1 [MEQUINOL] | 2.21
96 | CC(=O)Nc1ccccc1 [ACETANILIDE] | 2.2
97 | OC1CCC1 [CYCLOBUTANOL] | 1.18
98 | CCOC(=O)c1ccc(O)cc1 [ETHYLPARABEN] | 3.01
99 | C[C@H](CCC(=O)O)[C@H]1CC[C@H]2[C@@H]3[C@@H](O)C[C@@H]4C[C@H](O)CC[C@]4(C)[C@H]3CC[C@]12C [URSODIOL] | 4.51
100 | CCCC(C)C1(CC)C(=O)NC(=O)NC1=O (stereo not given) [PENTOBARBITAL] | 3.01

Row | SMILES | log Ks
101 | CCC(C)(C)c1ccc(O)cc1 | 4.7
102 | CCCCn1ccnc1 | 2.19
103 | C1CCOC1 [TETRAHYDROFURAN] | 1.47
104 | CCCCCCC(C)O (stereo not given) | 3.13
105 | C[C@H](CCC(=O)O)[C@H]1CC[C@H]2[C@@H]3[C@H](O)C[C@@H]4C[C@H](O)CC[C@]4(C)[C@H]3CC[C@]12C [CHENODIOL] | 4.36
106 | O=C(O)c1ccccc1Nc1cccc(C(F)(F)F)c1 [FLUFENAMIC ACID] | 3.1
107 | CC(C)c1ccc(O)cc1 | 3.58
108 | C[C@H](CCC(=O)O)[C@H]1CC[C@H]2[C@@H]3[C@H](O)C[C@@H]4C[C@H](O)CC[C@]4(C)[C@H]3C[C@H](O)[C@]12C [CHOLIC ACID] | 3.5
109 | Fc1ccccc1 [FLUOROBENZENE] | 1.96
110 | CC1(C)O[C@@H]2C[C@H]3[C@@H]4CCC5=CC(=O)C=C[C@]5(C)[C@@]4(F)[C@@H](O)C[C@]3(C)[C@]2(C(=O)CO)O1 [TRIAMCINOLONE ACETONIDE] | 3.51
111 | C[C@]12C=CC(=O)C=C1CC[C@H]1[C@@H]3C[C@@H](O)[C@](O)(C(=O)CO)[C@@]3(C)C[C@H](O)[C@@]12F [TRIAMCINOLONE] | 3.37
112 | CCCCC[C@H](O)/C=C/[C@H]1[C@H](O)CC(=O)[C@@H]1C/C=C\CCCC(=O)O [DINOPROSTONE] | 3.09
113 | C#Cc1ccccc1 | 2.36
114 | CC(=O)OCC(=O)[C@@]1(O)CC[C@H]2[C@@H]3CCC4=CC(=O)C=C[C@]4(C)[C@H]3[C@@H](O)C[C@@]21C [PREDNISOLONE ACETATE] | 3.76
115 | Oc1cccc(Br)c1 | 2.51
116 | CCCc1ccc(OC(C)=O)cc1 | 3.15
117 | O=[N+]([O-])c1ccc(O)cc1 [P-NITROPHENOL] | 2.39
118 | OCCO [ETHYLENE GLYCOL] | -0.19
119 | c1ccc2nc3ccccc3nc2c1 [PHENAZINE] | 2.41
120 | CCCc1cccc(OC(C)=O)c1 | 3.28
121 | c1ccc2ncccc2c1 [QUINOLINE] | 2.12
122 | NS(=O)(=O)c1cc2c(cc1C(F)(F)F)NC(Cc1ccccc1)NS2(=O)=O (stereo not given) [BENDROFLUMETHIAZIDE] | 1.9
123 | COc1cc(O)cc(OC)c1 | 2.34
124 | C[C@@H]1C[C@H]2[C@@H]3CCC4=CC(=O)C=C[C@]4(C)[C@@]3(F)[C@@H](O)C[C@]2(C)[C@@]1(O)C(=O)CO [DEXAMETHASONE] | 3.65
125 | CC(=O)Oc1cccc(I)c1 | 3.07
